Source: patent US20230167437A1, “COMPOSITIONS FOR TREATING CANCER WITH KRAS MUTATIONS AND USES THEREOF” (Aadigen, LLC, priority 2020, published 2023)

How the values were obtained:
Assay type in all cases: cell-based, human
[1] = system: wild type KRAS; assay: Indel frequencies at the endogenous target sequences (T7E1 / deep sequencing) after ADGN/Cas9 mRNA/gRNA transfection; settings: for indel frequencies: deep sequencing, 72 hours after transfection, Cas9 mRNA 0.1 μg, gRNA 0.2 μg
Procedure: (§1) Complex formation with mRNA:gRNA: ADGN peptide/mRNA/gRNA particles were prepared at a 20:1:1 molar ratio. ADGN/Cas9mRNA/sgRNA complexes were prepared at a 20/1/1 molar ratio with 0.5 μg mRNA: 1.5 μg sgRNA and 5% Glucose or DMEM (example for 96 well plates). […] Premixed Cas9 mRNA/gRNA were prepared in sterile water at room temperature in a glass vial (1-4 ml). ADGN-peptide solution was added dropwise (1 drop/sec) under magnetic agitation at 400 rpm to obtain a 1:2 ratio, and incubated for 30 min at room temperature or 37° C. Just before transfection, 150 μl Glucose or DMEM was added and the solution was mixed under magnetic agitation at 400 rpm for 1 minute. Then the solution was incubated for 5 min at 37° C. Then the complexes was ready for cell transfection or IV administration. Prior to IV administration, complexes were diluted in sucrose 5% solution.
(§2) Transfection protocol. The following protocols are reported for 24/48/96 well plate format transfection. Cells should be trypsinized and seeded a day prior transfection Cells were cultured in Dulbecco's Modified Eagle's Medium (DMEM), supplemented with 2 mM glutamine, 1% antibiotics (streptomycin 10,000 μg/mL, penicillin, 10,000 IU/mL) and 10% (w/v) foetal calf serum (FCS), at 37° C. in a humidified atmosphere containing 5% CO2. 96 well plates seeded with 50,000 cells, the day prior transfection, grown to 60-80% confluence and set up to be at around 70% confluence at the day of transfection. Before transfection, cells are washed twice with DMEM (without FBS and pen/strep) (100 μl/well). Cells were then overlaid with 25 μl of complex solution, mixed gently and incubated for 10 min at 37° C.+5% CO2. 50 μl of fresh DMEM (without FBS and Antibiotics) was added and cells were incubated for 2 h at 37° C.+5% CO2 (time of exposure can be adjusted based on sensitivity of the cells). 250 μL of DMEM (containing 10% FCS and 1% antibiotics) were then added without removing the overlay of ADGN peptide/mRNA complexes. Cells were returned to the incubator (37° C., 5% CO2) and analyzed 48 hours to 72 hours post transfection.
(§3) Nine different gRNAs targeting KRAS 35G>T mutant G12V (gRNA35T1, gRNA35T2, gRNA35T3, gRNA35T4, gRNA35T5, gRNA35T6, gRNA35T7, gRNA35T8 and gRNA35T9 (see FIG. 18)) were evaluated on SW403 and SW480 cancer cells harboring G12V KRAS mutation. Cas9 mRNA (0.15 μg) and gRNA (0.2 μg) were associated with ADGN-peptides as reported in experimental procedure. SW403, SW480 and HT-29 cells were cultured in 48 well plate format and treated with free mRNACas9-gRNA, or ADGN-100/mRNACas9:gRNA complex. Indel frequencies at the endogenous target sequences was evaluated 72 hours after transfection by either T7E1 method and by deep sequencing. Cell proliferation was analyzed over a period of 5 days using CellTiter Glow kits on GlowMax (Promega).
(§4) Nine different gRNAs targeting KRAS 35G>A mutant G12D (gRNA35A1, gRNA35A2, gRNA35A3, gRNA35A4, gRNA35A5, gRNA35A6; gRNA35A7, gRNA35A8, gRNA35A9) were evaluated on LS513, Panc1, PK-45H, and PK1 cancer cells harboring G12D KRAS mutation. Cas9 mRNA (0.1 μg) and gRNA (0.2 μg) were associated with ADGN-peptide at molar ratio 20/1 (peptide/nucleic acid). LS513, Panc1, PK-45H, PK1, HS-68 and HT-29 cells were cultured in 48 well plate format and treated with free mRNACas9-gRNA, or ADGN/mRNACas9:gRNA complex. Indel frequencies at the endogenous target sequences was evaluated 72 hours after transfection by either T7E1 method or deep sequencing. Cell proliferation was analyzed over a period of 5 days using CellTiter Glow kits on GlowMax (Promega).

[2] = system: KRAS 35G>A mutant G12D; assay: as above; settings: for indel frequencies: deep sequencing, 72 hours after transfection, Cas9 mRNA 0.1 μg, gRNA 0.2 μg; for disruption of G12D mutant KRAS (FIG. 2A): G12D cancer cells vs wild type KRAS cells (HT29 or HS-68)
Procedure: as §1, §2, §4
(§5) In order to confirm the specificity of sgRNAs targeting G12V, G12C or G12D KRAS mutation, gRNA35T3 targeting G12V, gRNA34T6 targeting G12C, and gRNA35A5 targeting G12D were evaluated on a large panel of cancer cells harboring different KRAS mutations including SW403, SW480, PANC1, PK-45H, PK-1, MIA-PACA, H23, H358, HT-29, HS-68 and LS513. Cas9 mRNA (0.2 μg) and gRNA (0.4 μg) were associated with ADGN peptide at molar ratio 20/1 (peptide/nucleic acid). Cells were cultured in 48 well plate format and treated with free mRNACas9-gRNA, or ADGN/mRNACas9:gRNA complex. Indel frequencies at the endogenous target sequences was evaluated 72 hours after transfection by either T7E1 method and cell proliferation was analyzed over a period of 5 days using CellTiter Glow kits on GlowMax (Promega).

[3] = system: PANC1, PK1, LS513 and PK-45H cells; assay: Cell proliferation over 5 days (CellTiter Glow); settings: PANC1, PK1, LS513, PK-45H vs HT29 or HS-68 cells harboring KRAS WT
Procedure: as §2, §4

[4] = system: Mia-PACA, H23 and H358 cells; assay: Cell proliferation over 5 days (CellTiter Glow); settings: Mia-PACA, H23, H358 vs KRAS WT HT29 or HS-68 and PANC1 cells
Procedure: as §2
(§6) Eight different gRNAs targeting KRAS 34G>T mutant G12C (gRNA34T1, gRNA34T2, gRNA34T3, gRNA34T4, gRNA34T5, gRNA34T6, gRNA34T7 and gRNA34T8) were evaluated on MIA-PACA, H23, H358, H29 and PANC1 cells. Cas9 mRNA (0.1 μg) and gRNA (0.2 μg) were associated with ADGN peptide at molar ratio 20/1 (peptide/nucleic acid). MIA-PACA, H23, H358, PANC1 and HT29 cells were cultured in 48 well plate format and treated with free mRNACas9-gRNA, or ADGN/mRNACas9:gRNA complex. Indel frequencies at the endogenous target sequences was evaluated 72 hours after transfection by either T7E1 method or deep sequencing. Cell proliferation was analyzed over a period of 5 days using CellTiter Glow kits on GlowMax (Promega).

[5] = system: KRAS 34G>T mutant G12C; assay: Indel frequencies at the endogenous target sequences (T7E1 / deep sequencing) after ADGN/Cas9 mRNA/gRNA transfection; settings: for indel frequencies: deep sequencing, 72 hours after transfection, Cas9 mRNA 0.1 μg, gRNA 0.2 μg
Procedure: as §1, §2, §6, §5

[6] = system: KRAS 35G>T mutant G12V; assay: as above; settings: for indel editing and disruption of G12V mutant KRAS (FIG. 1A): SW403, SW480 vs wild type KRAS HT29 cells, T7E1; for indel frequencies: deep sequencing, 72 hours after transfection, Cas9 mRNA 0.15 μg, gRNA 0.2 μg, ADGN-100
Procedure: as §1, §2, §3, §5

[7] = system: SW403 and SW480 cells; assay: Cell proliferation over 5 days (CellTiter Glow); settings: SW480 and SW403 cells vs HT29 cells harboring KRAS WT
Procedure: as §2, §3

[8] = SW403 cells (heterozygous 35G>T)

| Sequence | indel frequencies ([1]; HS68 cells (WT KRAS)) [%] | indel frequencies ([1]; HT-29 cells (WT KRAS)) [%] | indel frequencies ([2]; LS513 cells) [%] | indel frequencies ([2]; PANC1 cells) [%] | indel frequencies ([2]; PK1 cells) [%] | indel frequencies ([2]; PK-45H cells) [%] | inhibition of proliferation or survival (FIG. 2B) [3] | disruption of G12D mutant KRAS (FIG. 2A) [2] | indel editing and disruption of G12V mutant KRAS (FIG. 1A) [6] | indel frequencies [6, 8] [%] | indel frequencies ([6]; SW480 cells (homozygous 35G>T)) [%] | inhibition of proliferation or survival (FIG. 1B) [7] | further results |
| --- | --- | --- | --- | --- | --- | --- | --- | --- | --- | --- | --- | --- | --- |
| CTTGTGGTAGTTGGAGCTGA (guide CTTGTGGTAGTTGGAGCTGA; chemistry not given here) [gRNA35A1, sgRNA target KRAS G12D mutation (35G>A); PAM TGG] | 8 ± 1 | 10 ± 1 | 17 ± 2 | 32 ± 2 | 12 ± 1 | 15 ± 0.8 | specifically inhibit proliferation or survival of PANC1, PK1, LS513 and PK-45H cells | – | – | – | – | – | effect on wild type KRAS cells ([1]; HT-29 and HS-68 cells): also affected wild type KRAS cells |
| CTTGTGGTAGTTGGAGCTTG (guide CTTGTGGTAGTTGGAGCTTG; chemistry not given here) [gRNA34T1, sgRNA target KRAS G12C mutation (34G>T); PAM TGG] | – | – | – | – | – | – | – | – | – | – | – | – | inhibition of proliferation or survival (FIG. 3B) [4]: specifically inhibit proliferation or survival of Mia-PACA, H23 and H358 cells; indel frequencies ([5]; H23 cells): 41%; indel frequencies ([5]; H358 cells): 29%; indel frequencies ([5]; Mia-PACA cells): 34%; indel editing and disruption of G12C mutant KRAS (FIG. 3A) ([5]; Mia-PACA, H23, H358 vs HT29 and PANC1 cells): induced indel editing and efficient disruption of G12C mutant KRAS |
| GGTAGTTGGAGCTGATGGCG (guide GGTAGTTGGAGCTGATGGCG; chemistry not given here) [gRNA35A2, sgRNA target KRAS G12D mutation (35G>A); PAM TAG] | 6 ± 2 | 2 ± 1 | 31 ± 2 | 58 ± 4 | 48 ± 2 | 52 ± 5 | specifically inhibit proliferation or survival of PANC1, PK1, LS513 and PK-45H cells | induced efficient disruption of G12D mutant KRAS | – | – | – | – | – |
| GTAGTTGGAGCTGATGGCGT (guide GTAGTTGGAGCTGATGGCGT; chemistry not given here) [gRNA35A7, sgRNA target KRAS G12D mutation (35G>A); PAM AGG] | 4 ± 0.4 | 7 ± 2 | 24 ± 2 | 47 ± 1 | 31 ± 2 | 35 ± 0.5 | specifically inhibit proliferation or survival of PANC1, PK1, LS513 and PK-45H cells | induced efficient disruption of G12D mutant KRAS | – | – | – | – | – |
| GTAGTTGGAGCTGTTGGCGT (guide GTAGTTGGAGCTGTTGGCGT; chemistry not given here) [gRNA35T8, sgRNA target KRAS G12V mutation (c.35G>T); PAM AGG] | – | – | – | – | – | – | – | – | specifically induced indel editing and efficient disruption | 40 | 51 | specifically inhibit proliferation or survival of SW480 and SW403 cells | – |
| GTT GGA GCT GAT GGC GT (guide GTTGGAGCTGATGGCGT; chemistry not given here) [gRNA35A6, sgRNA target KRAS G12D mutation (35G>A); PAM AGG] | 2 ± 1 | 5 ± 1 | 32 ± 5 | 60 ± 2 | 37 ± 0.4 | 48 ± 1 | specifically inhibit proliferation or survival of PANC1, PK1, LS513 and PK-45H cells | induced efficient disruption of G12D mutant KRAS | – | – | – | – | – |
| GTT GGA GCT GTT GGC GT (guide GTTGGAGCTGTTGGCGT; chemistry not given here) [gRNA35T6, sgRNA target KRAS G12V mutation (c.35G>T); PAM AGG] | – | – | – | – | – | – | – | – | specifically induced indel editing and efficient disruption | 18 | 39 | specifically inhibit proliferation or survival of SW480 and SW403 cells | – |
| TGGTAGTTGGAGCTGTTGGCGT (guide TGGTAGTTGGAGCTGTTGGCGT; chemistry not given here) [gRNA35T1, sgRNA target KRAS G12V mutation (c.35G>T); PAM AGG] | – | – | – | – | – | – | – | – | specifically induced indel editing and efficient disruption | 35 | 57 | specifically inhibit proliferation or survival of SW480 and SW403 cells | – |
